Experimental findings from patent US20150219644A1, “MARKER FOR ACUTE CORONARY SYNDROME, AND USE THEREOF” (RIKEN, priority 2012, published 2015) are described below.

The subject of test [1] is human brain microvascular endothelial cell (BMEC). As to the kind of experiment: sAPP770 secreted from BMEC detected by APP770 ELISA. Format: cell-based. The note with it: culture 16 hr, n=4; for level of sAPP770 secreted from BMEC: cytokine 100 ng/ml. The text has this: (A) Brief explanations of APP total ELISA and APP770 ELISA. The recognition sites of a trap antibody (with asterisk) and a detection antibody (without asterisk) in these ELISA systems are shown in the schematic drawing. (B) Western blot analysis. Anti-N terminal APP (22C11) antibody detects full-length APP695, APP751 and APP770 in the lysates of COS cells overexpressing APP695, APP751 and APP770, whereas anti-OX2 antibody used as a trap antibody in APP770 ELISA specifically recognizes APP770. (C) APP total ELISA detects sAPP695, sAPP751 and sAPP770 secreted from COS cells, whereas APP770 ELISA detects only sAPP770. (D) BMEC was cultured for 16 hr in the presence or absence of inflammatory cytokine (TNFα, IL-1β or IL-6; each 100 ng/ml), and sAPP770 secreted from the cells was detected by APP770 ELISA. […] (E) An influence on secretion of sAPP770 from BMEC by culture for 16 hr in the presence of TAPI-0 (10 μM). […] (F) The sAPP770 levels of human serum and human plasma samples are shown in mean±SEM (n=19).
Human APP695-pcDNA3.1, APP751-pcDNA3.1 and APP770-pcDNA3.1 used were those constructed in the previous study (J Biol Chem 285(51):40097-40103 (2010)). Human BMEC (Applied Cell Biology Research Institute) was cultured in CS-C complete medium added with 10% FBS, and used within 4 passages.
Using human sAPP total assay kit (IBL-Japan), sAPP695, sAPP751 and sAPP770 were detected according to the established protocol (http://www.ibl-japan.co.jp). The APP770 ELISA system was established as previously reported (Anal Chim Acta 631(1): 116-120 (2009)). Briefly explained, a 96 well plate was coated with an anti-OX2 antibody, and a horseradish peroxidase-conjugated anti-APP R101A4 antibody was used as a detection antibody. Human CSF (1:16 diluted with dilution buffer contained in kit), plasma and serum (1:75 diluted with dilution buffer contained in kit) were evaluated by APP total ELISA and APP770 ELISA.

The test system of a further test is platelets. The test is described as follows: release of sAPP770 from collagen-stimulated platelets (PRP), APP770 ELISA. The note with it: collagen final concentration 3 μg/ml. The class given is cell-based, human. As to the method: (A, B) PRP was stirred under stimulation with collagen (final concentration 3 μg/ml). At the time points shown in the Figure, each sample was centrifuged, and supernatant (A) […] and platelet pellet (B) were analyzed by APP770 ELISA. (C) Platelets were washed, stimulated with collagen, centrifuged, and sAPP770 released in the supernatant was analyzed. (D) Schematic drawing showing APP770 and the sites recognized by a series of anti-APP antibodies. (E) After stimulation of platelets with collagen and, at the time points shown in the Figure, the platelet pellets were solubilized, sAPP was pulled down from the platelet release product, and analyzed by western blotting using anti-APP(22C11) antibody, anti-OX2 antibody, anti-APP(C) antibody and anti-KPI antibody. […]
On the day of experiment, blood (16 ml) was collected from healthy human by using a vacuum blood collection tube (NIPRO CORPORATION) containing 3.8% sodium citrate. […] The obtained cell lysate was evaluated by ELISA and Western blot analysis.
Using human sAPP total assay kit (IBL-Japan), sAPP695, sAPP751 and sAPP770 were detected according to the established protocol (http://www.ibl-japan.co.jp). […] Human CSF (1:16 diluted with dilution buffer contained in kit), plasma and serum (1:75 diluted with dilution buffer contained in kit) were evaluated by APP total ELISA and APP770 ELISA.

In the case of `CC(C)C[C@H](CC(=O)NO)C(=O)N[C@@H](Cc1ccc2ccccc2c1)C(=O)N[C@@H](C)C(N)=O` [TAPI-0], in test [1] (TAPI-0 10 μM), the “secretion of sAPP770 from BMEC” value was “partially inhibited”. Turning to “IL-1β: recombinant human inflammatory cytokine from R&D Systems”, the “level of sAPP770 secreted from BMEC” value in test [1] is given as “significantly increased only slightly”.

For “IL-6: recombinant human inflammatory cytokine from R&D Systems”, the “level of sAPP770 secreted from BMEC” value in test [1] was “did not increase”. As for TNFα, in test [1], the “level of sAPP770 secreted from BMEC” value is reported as “significantly increased only slightly”. Turning to collagen, the “level of sAPP770 in the platelet precipitate” value in the test with platelets (after stimulation) is “decreased remarkably”. Further, in the test on platelets (one minute after stimulation), the “level of sAPP770 in the PRP supernatant” value is given as “increased rapidly”.
